For one series, the system named is CYP4A11 mRNA. Put plainly: RT-PCR of CYP4A11 mRNA in U251 cultures. To be noted: 100 μM DDMS. The format is cell-based, human. The protocol: EtOH-treated cultures were used as solvent controls. Briefly, total RNA was isolated with Trizol reagent (Invitrogen) and 1-2 μg RNA was used to synthesize cDNA using a First Strand synthesis kit (Invitrogen). We used PCR primers that specifically recognize CYP4A11, and β-actin-specific primers. A 1 μCi ^32P per sample was added to Platinum PCR Supermix (Invitrogen). The PCR conditions used to amplify CYP4A 11 and β-actin consisted of a precycle of 95° C for 3 min followed by 35 cycles of 95° C for 45 s, 52° C. for 30 s, and 72° C. for 2 min, with final extension at 72° C. for 10 min. The primers used were: β-actin forward primer, 5′-TGCGTGACATTAAGGAGAAG-3′ (SEQ ID NO:3); β-actin reverse primer, 5′-GCT CGT AGC TCT TCT CCA-3′ (SEQ ID NO:4); CYP4A11 forward primer, 5′-CCACCTGGACCAGAGGCCCTACACCACC-3′ (SEQ ID NO:5); CYP4A11 reverse primer, 5′-AGGATATGGGCAGACAGGAA-3′(SEQ ID NO:6). PCR products were subjected to electrophoresis in 5% bis-acrylamide gels and visualized by autoradiography.

The test system of series [1] is primary human keratinocytes. In words: Proliferation of primary human keratinocytes (comparison with U251). The format is cell-based. Conditions: 10 μM HET0016, 48 hrs; DDMS concentration not given. On the procedure:
(§1) Mean values±SD from three separate experiments, each performed in triplicate, are presented. *** indicates p<0.001 from the respective control values.
(§2) Cell Proliferation Assays: Proliferation studies were performed with cultures plated at a density that ensured exponential growth for at least 5 days. Growth medium was generally replaced by serum-free medium 24 hr after plating. Cells were treated with various concentrations of a given compounds for 24 or 48 hr as described in the Methods. […] Organic solvent never exceeded 0.1% of total culture volume. Cells were harvested by exposure to 0.05% trypsin/EDTA and counted using a hemocytometer.

For a further series, the system named is CYP4A. To be noted: read-out: IC50 for inhibition of CYP4A enzyme activity; cited from earlier work.
For the next series, the system named is HUVECs. Put plainly: Proliferation of normal HUVECs (comparison with U251). The series is classed as cell-based, human. Conditions: 10 μM HET0016, 48 hrs; DDMS concentration not given. The protocol: as §1, §2
For another series, the system named is rat cornea. Put plainly: Rat cornea pocket angiogenesis assay (growth factor pellets). The series is classed as in vivo. On the procedure:
(i) Preparation of sustained-release polymer: Sustained-release polymer pellets were prepared by making a 1:1 mix of a 12% solution in ethanol of the polymer (Hydron polyhydroxyethylmethacrylate), with saline containing the growth factors. The growth factors bFGF, VEGF, and EGF were dissolved at a concentration of 125 ng/μl. […] 2 μl of these solutions were added to each pellet. Thus, a pellet containing 250 ng of a single growth factor was implanted at random in the right or left eye. The other eye was implanted with a pellet containing the same dose of growth factor+HET0016. In some rats the pellet contained VEGF alone and VEGF+DDMS. 20 μg of the stable 20-HETE agonist analog WIT003 was implanted in one eye to determine whether it induces angiogenesis. […] 9 μl of the 1:1 Hydron/treatment mixture was placed on the ends of 1.5-cm rods. Each pellet contained 250 ng of its respective growth factor. For bFGF we used sucralfate to stabilize and allow sustained release of this growth factor (Volkin D B et al., Biochim Biophys Acta 1993, 1203:18-26). After drying the pellets for 1 hour, they were ready to be implanted into the cornea of rats.
(ii) Pellet implantation: The rats were anesthetized IM with ketamine (80 mg/kg) and xylazine (10 mg/kg). The eyes were topically anesthetized with 0.5% proparacaine (Ophthetic, Alcon, Tex.) and the globes proptosed with a jeweler's forceps. Using an operating microscope, a central intrastromal linear keratotomy, approximately 1.5 mm in length, was performed with a surgical blade (Bard-Parker #11; Becton Dickinson, Franklin Lake, N.Y.) parallel to the insertion of the lateral rectus muscle. A curved iris spatula (No. 10093-13, Fine Science Tools, Belmont, Calif.) approximately 1.5 mm wide and 5 mm long was inserted under the lip of the incision and gently pushed through the stroma toward the temporal limbus of the eye. The distance between the limbus and the base of the pocket was kept at 1.0±0.1 mm. The pellet was advanced to the temporal end of the pocket. Antibiotic ointment (erythromycin) was applied to the anterior surface of the eye.
(iv) Quantitation of corneal neovascularization: Seven days after pellet implantation, the rats were deeply anesthetized as previously described with ketamine and xylazine. The left ventricle was cannulated and the animal was perfused with 20-25 ml saline through the left ventricle followed by 20-25 ml India ink (waterproof drawing ink, Sanford, Bellwood, Ill.). The eyes were marked for orientation, enucleated and placed in 4% formalin for 24 hours. The cornea was dissected free from the surrounding globe and underlying iris, bisected, and loosely mounted between two glass slides, thus gently flattening the cornea. These flat mounts were examined microscopically using a Nikon Diaphot Epi-fluor 2 microscope attached to a CCD video camera and the images were digitized and saved using a computer.
Neovascularization was determined by comparing total vessel length in the control and experimental eyes. Vessel length was determined by tracing each vessel from the limbus to the pellet. Total length is the sum of these values in pixels and was determined using conventional image analysis software (Sigma Scan Pro, SPSS, Chicago, Ill.)

In a further series the test system is U251 human glioma cells. In words: U251 cell proliferation assay (cell counting). The format is cell-based. On the procedure:
Culture Conditions: Cells were routinely maintained in DMEM (Invitrogen) supplemented with 10% heat-inactivated fetal bovine serum (FBS), penicillin (10 IU/ml), streptomycin (10 μg/ml) and 10% non-essential amino acids (all purchased from Invitrogen). Cells were maintained at 37° C. in a humidified incubator containing 5% CO2. They were grown in medium containing 10% FBS, which was then replaced with serum-free medium where U251 cells grow exponentially. Treatments were initiated one day after serum removal.
as §2

The test system of another series is 9L rat gliosarcoma cells. Put plainly: 9L cell proliferation assay (cell counting). The series is classed as cell-based. On the procedure: Culture Conditions: 9L rat gliosarcoma cells were purchased from ATC (Gaithersburg, Md.) and were maintained in DMEM (Invitrogen) supplemented with 10% heat-inactivated fetal bovine serum (FBS), penicillin (10 IU/ml), streptomycin (10 μg/ml) and 10% non-essential amino acids (all purchased from Invitrogen). Cells were maintained at 37° C. in a humidified incubator containing 5% CO2. They were grown in medium containing 10% FBS, which was then replaced with serum-free medium (give type and source) where 9L cells grow exponentially.
Cell Proliferation Assays: Proliferation studies were performed with cultures plated at a density that ensured exponential growth for at least 5 days. Growth medium were generally replaced by serum free medium 24 hr after plating. […] The concentration of the ethanol added to the media never exceeded 0.1%. Cells were harvested by exposure to a solution of 0.05% Trypsin/EDTA and counted using a hemocytometer.

“Also recorded” adds a separate entry of the source.

For `CS(=O)(=O)NC(=O)CCCCCCCCCC=C(Br)Br` [DDMS, dibromododecenyl methylsulfonimide], the CYP4A11 transcript levels result in the series on CYP4A11 mRNA is reported as “not affected”. In addition, the “effect on basal growth or proliferation of primary human keratinocytes” value in series [1] is listed as “Neither DDMS or HET0016 had any effect”. For the same molecule, the half-inhibitory concentration (IC50) in the series with CYP4A is roughly 10 µM. Besides, the “effect on basal growth or proliferation of normal HUVECs” value in the series with HUVECs was “Neither DDMS or HET0016 had any effect”. In addition, the “angiogenic response to inhibitor alone” value in the series with rat cornea (20 μg HET0016 or 10 μg DDMS per pellet, no growth factor) is on record as “Neither HET0016 nor DDMS alone elicited a response different from saline”. Moreover, the “effect on the angiogenic response to VEGF” value in the series with rat cornea (VEGF 250 ng/pellet + 10 μg DDMS) is reported as “as effective as 20 μg HET0016; also recorded: completely inhibits the angiogenic response; also recorded: abolished; also recorded: inhibit angiogenic responses to VEGF”. In addition, the “blockade of U251 cell proliferation” value in the series on U251 human glioma cells (DDMS, concentration not given) is recorded as “about 60%”. The “concentration dependence of inhibition of U251 proliferation” value with U251 human glioma cells (various concentrations) is given as “inhibited the proliferation of U251 cancer cells in a dose-dependent manner; also recorded: inhibited the proliferation of U251 cells in a concentration dependent manner”. Also, the “effect on 9L cell number” value with 9L rat gliosarcoma cells (DDMS 10 μM) is reported as “significant reduction in cell number”. Also, in the series with 9L rat gliosarcoma cells (DDMS, concentration not given), the “inhibition of 9L cell proliferation” value is 60%.

The term IC50 denotes the midpoint of a concentration-inhibition curve.

Source of the values: patent US20050124618A1, “Methods of modulating angiogenesis and cancer cell proliferation” (priority 2003, published 2005).
